Reference: PMC11859031, “Assessment of the In Vitro Biological Activities of Schiff Base-Synthesized Copper Oxide Nanoparticles as an Anti-Diabetic, Anti-Alzheimer, and Anti-Cancer Agent” (Pharmaceutics, 2025)
Converted amounts (≈) assume the structure as drawn.

Legend:
[1] = Iron reducing power (IRP); details: samples at 100 µg/mL; mean ± SE, n = 3
Description: ammonium molybdate. Methanol (80%) was used in place of the sample for the blank. The tubes were sealed and incubated in a boiling water bath for 90 minutes.
After cooling to room temperature, the absorbance was measured at 695 nm against the blank. […] was used at the same concentrations as a standard. The antioxidant capacity was expressed as mg gallic acid equivalent per gram weight.
The iron reducing power was determined as µg/mL using the method proposed by Oyaizu (1986). In brief, 1ml of the tested sample (at each concentration) was combined with 1mL of 200mM sodium phosphate buffer (pH 6.6) and 1mL of 1% potassium ferricyanide. […] The absorbance was measured at 700nm against a blank prepared without the sample. […] A high absorbance at 700nm indicates a higher reducing power in the reaction mixture.
The 1,1-Diphenyl-2-picryl-hydrazyl (DPPH) radical scavenging activities were evaluated using the method described by Rahman et al. An antioxidant substance capable of donating a hydrogen atom to a solution containing DPPH- can reduce the stable free radical, causing the solution to change color from violet to pale yellow.
The remaining DPPH- radical was quantified by measuring the intensity of a light-purple colored DPPH methanol solution in the visible range at 518 nm using a spectroscopic method. […]

NO radical scavenging = details: mean ± SE, n = 3
Description: The in vitro biological applications of the SB and SB-CuO-NPs, including antioxidant, scavenging, anti-diabetic, anti-Alzheimer, anti-arthritic, anti-inflammatory, cytotoxic effects, and enzyme inhibition, were assessed using methods described in the literature (See Supplementary Materials).
During the current study, the free radical scavenging capacity of SB-CuO-NPs, SB, and ascorbic acid (positive control) was evaluated using the DPPH, ABTS, and NO radical methods. The scavenging activity is used to predict antioxidant efficacy, a mechanism in which antioxidants inhibit lipid oxidation. The lower IC50 value indicates a stronger ability of the SB-CuO-NPs to act as radical scavengers, whereas the higher IC50 value indicates a lower scavenging activity. […] The lower the IC50 value, the greater the antioxidant activity.

[2] = system: caspase-3 in HepG-2 cells; assay: Caspase-3 ELISA in treated HepG-2 cells; format: cell-based, human; details: HepG-2 cells treated at the IC50 value, mean ± SE, n = 3
Description: (§1) Following the treatment of HepG-2, Caco-2, A549, and BJ-1 cells with the SB-CuO-NPs at their respective IC50 values, as illustrated in Figure 9 and detailed in Table 5, an assessment of the activities of the caspase-3 and Bcl-2 enzymes was conducted in the treated cells. […] This mechanism ultimately triggers apoptosis. Additionally, the increased activity of caspase-3 results in a decrease in the expression of cyclin D1 and CDK-2 mRNA, thereby promoting the arrest of the G1 phase of the cell cycle. Othman et al. further noted that the biosynthesized M-NPs facilitate apoptosis by inhibiting the expression of the PI3K/AKT and Ras/Raf/ERK protein signaling pathways.
(§2) Invitrogen Corporation, following the manufacturer's instructions.

Bcl-2 in Caco-2 cells = assay: Bcl-2 ELISA in treated Caco-2 cells; format: cell-based, human; details: Caco-2 cells treated at the IC50 value, mean ± SE, n = 3
Description: as §1, §2

[3] = system: human lung cancer (A549) cell line; assay: MTT cytotoxicity, A549
[4] = system: human colon cancer (Caco-2) cell line; assay: MTT cytotoxicity, Caco-2

Cc1nn(-c2ccccc2)c(Cl)c1C=NN=C1C(=O)Nc2ccccc21 [SB]
Antioxidant activity IRP [1]: 47.66 ± 0.19 µg/mL | Scavenging activity NO Inhib. (%) (NO radical scavenging; at 100 µg/mL): 36.79 ± 0.18% | Scavenging activity NO IC50 (NO radical scavenging): 7.69 ± 0.04 µg/mL | Caspase-3 [2]: 165.55 ± 1.29 pg/mL | Bcl-2 (Bcl-2 in Caco-2 cells): 3.77 ± 0.05 ng/mL | viability at 31.13 µg/mL ([3]; A549): 86.2% | viability at 62.5 µg/mL ([3]; A549): 70.3% | viability at 125 µg/mL ([3]; A549): 44.8% | viability at 250 µg/mL ([3]; A549): 38.5% | viability at 500 µg/mL ([3]; A549): 18.8% | IC50 ([3]; A549, 48 h, read-out: Median Inhibitory Concentration (IC50) A549): 110 ± 2.49 µg/mL (≈ 303 µM) | viability at 31.13 µg/mL ([4]; Caco-2): 86% | viability at 62.5 µg/mL ([4]; Caco-2): 72.2% | viability at 125 µg/mL ([4]; Caco-2): 48.6% | viability at 250 µg/mL ([4]; Caco-2): 38.4% | viability at 500 µg/mL ([4]; Caco-2): 18.6% | IC50 ([4]; Caco-2, 48 h, read-out: Median Inhibitory Concentration (IC50) Caco-2): 115 ± 3.25 µg/mL (≈ 317 µM)
